Results taken from US7037942B2, “Amide compounds for the potentiation of cholinergic activity” (Astellas Pharma Inc., priority 1999, dated 2006).

Test system: penile erection
Assay: Penile erection in rat
Type: in vivo
Settings: male Fischer 344 rats, intraperitoneal, observed 60 minutes, mean number
Experimental: (This test was carried out according to a similar manner to that described in Jpn. J. Pharmacol., Vol. 64, 147–153 (1994))
Male Fischer 344 rats at the age of 8 weeks (n=7) were used. All rats were handled 3 minutes a day for three successive days before the tests. The rats were tested in groups of seven and various doses of the test compound were given in semi-randomized order. The test compounds were suspended in 0.5% methyl-cellulose immediately before use, and given intraperitoneally in a volume of 1 ml/kg just before the start of test. […] A mirror was situated behind each box […]. Data was expressed as a mean number.

| Compound | Penile Erection (Number/hr) (dose 0.1 mg/kg) | Penile Erection (Number/hr) (dose 0.32 mg/kg) |
| --- | --- | --- |
| O=C(NC1CCc2ccccc2C1)c1ccncc1 (stereo not shown) [Example 8, 2-(Pyridin-4-ylcarbonylamino)-1,2,3,4-tetrahydro-naphthalene] | 0.60 Number/hr | – |
| CC1=CCC(NC(=O)c2ccncc2)CC1 (stereo not shown) [Example 7, 1-(pyridin-4-ylcarbonylamino)-4-methylcyclohex-3-ene] | 0.71 Number/hr | – |
| O=C(NC1CCc2ccccc2C1)c1ccc(F)cc1 (stereo not shown) [Example 6, 2-(4-Fluorobenzoylamino)-1,2,3,4-tetrahydronaphthalene] | – | 0.60 Number/hr |
| O=C(Nc1ccc(F)cc1)N1CC=CCC1 [Example 2, 1-(4-fluorophenylcarbamoyl)-1,2,3,6-tetrahydropyridine] | – | 0.57 Number/hr |
